From patent US12410123B2, “N-[8-(2-hydroxybenzoyl)amino]potassium octanoate crystal polymorph, and preparation method therefor and use thereof” (SCIWIND BIOSCIENCES CO., LTD., priority 2020, dated 2025)

Key:
Format in all cases: physicochemical
[1] = Solution stability of different crystal forms of PNAC in aqueous solution (500 mg/mL); details: 500 mg/mL in purified water
Method: The stability differences between different salt forms and different crystal forms in aqueous solution under the condition of high concentration (500 mg/mL) were compared, and the results are shown in Table 5 (there is no difference in the dissolution and solution storage process of the samples of PNAC crystal forms I-IV).

[2] = Solid-state stability of PNAC crystal forms (storage; XRPD and HPLC)
Method: The third group was kept under the conditions of 25° C. and 60% relative humidity for 2 weeks to obtain a solid sample, and then the three groups of solid samples were respectively evaluated for physical and chemical stability by XRPD and HPLC assay.
The purity of main peak was calculated by normalization method.

[3] = Stability during preparation (grinding, tableting, airflow crushing; XRPD)
Source text: Three groups of solid samples were characterized by XRPD to evaluate their physical stability.

[4] = Airflow crushing (injection pressure 0.4 MPa, pulverization pressure 0.2 MPa)
[5] = solid, 60° C. for 24 h, 40° C. and 75% relative humidity for two weeks, 25° C. and 60% relative humidity for 2 weeks

Row | Compound | storage time at which flocs began to appear in the solution ([1]; 4° C.) | storage time at which flocs began to appear in the solution ([1]; room temperature) | overall solid-state stability (conclusion from Table 15) [2] | crystal form after treatment (XRPD) ([2]; 25° C./60% RH, 2 W) | crystal form after treatment (XRPD) ([2]; 25° C./75% RH, 2 W) | crystal form after treatment (XRPD) ([2]; 60° C., 24 h) | change of crystal form after grinding, tableting and airflow crushing (XRPD) [3] | crystal form after treatment (XRPD) [3, 4] | crystal form after treatment (XRPD) ([3]; Manual grinding (10 min)) | crystal form after treatment (XRPD) ([3]; Tableting (pressure of 3 kN)) | crystal form after storage (XRPD) [2, 5] | relative purity (HPLC) after storage [2, 5]
1 | O=C([O-])CCCCCCCNC(=O)c1ccccc1O.[Na+] [SNAC, monosodium N-[8-(2-hydroxybenzoyl)amino]octanoate] | 0.5 h | 1 h | – | – | – | – | – | – | – | – | – | –
2 | O=C([O-])CCCCCCCNC(=O)c1ccccc1O.[K+] [crystal Form I, Potassium N-[8-(2-hydroxybenzoyl)amino]octanoate] | – | – | very stable | crystal Form II | crystal Form II | crystal Form I | does not change | crystal Form I | crystal Form I | crystal Form I | – | –
3 | O=C([O-])CCCCCCCNC(=O)c1ccccc1O.[K+] [crystal Form II, Potassium N-[8-(2-hydroxybenzoyl)amino]octanoate] | – | – | very stable | crystal Form II | crystal Form II | crystal Form II | does not change | crystal Form II | crystal Form II | crystal Form II | the crystal form has not changed | 100%
4 | O=C([O-])CCCCCCCNC(=O)c1ccccc1O.[K+] [crystal Form III, Potassium N-[8-(2-hydroxybenzoyl)amino]octanoate] | – | – | – | crystal Form II | crystal Form II | crystal Form I | – | – | – | – | – | –
5 | O=C([O-])CCCCCCCNC(=O)c1ccccc1O.[K+] [crystal Form IV, Potassium N-[8-(2-hydroxybenzoyl)amino]octanoate] | – | – | – | crystal Form II | crystal Form II | crystal Form I | – | crystal Form IV | crystal Form IV | crystal Form IV | – | –
